Test results published in ChEMBL document CHEMBL4396887, “Five-Membered N-Heterocyclic Scaffolds as Novel Amino Bioisosteres at γ-Aminobutyric Acid (GABA) Type A Receptors and GABA Transporters” (J Med Chem, 2019).
Active and inactive are the calls of the source. No cut-off for these calls is given here.

Assays:
[1] = biological target: T1, Gamma-aminobutyric acid receptor subunit rho-1 (Homo sapiens, UniProt P24046); assay: Antagonist activity at recombinant human GABA-A rho-1 receptor transiently expressed in human tsA201 cells incubated for 30 mins and measured up to 90 secs by FMP dye based FLIPR membrane potential blue assay; format: cell-based
[2] = biological target: T2, Gamma-aminobutyric acid receptor subunit alpha-4/beta-2/gamma-2 (Homo sapiens, UniProt P47870+P18507+P48169); assay: Agonist activity at recombinant human GABA-A alpha4beta2gamma2S receptor transiently expressed in human tsA201 cells at >= 100 uM incubated for 30 mins and measured up to 90 secs by FMP dye based FLIPR membrane potential blue assay; format: cell-based
[3] = biological target: T1, Gamma-aminobutyric acid receptor subunit rho-1; assay: Agonist activity at recombinant human GABA-A rho-1 receptor transiently expressed in human tsA201 cells at 300 uM incubated for 30 mins and measured up to 90 secs by FMP dye based FLIPR membrane potential blue assay; format: cell-based
[4] = organism: Homo sapiens; assay: Selectivity ratio of IC50 for human GAT3 expressed in Flp-In CHO cells to IC50 for human BGT1 expressed in Flp-In CHO cells; format: cell-based
[5] = organism: Homo sapiens; assay: Selectivity ratio of IC50 for human GAT2 expressed in Flp-In CHO cells to IC50 for human BGT1 expressed in Flp-In CHO cells; format: cell-based
[6] = organism: Homo sapiens; assay: Selectivity ratio of IC50 for human GAT1 expressed in Flp-In CHO cells to IC50 for human BGT1 expressed in Flp-In CHO cells; format: cell-based
[7] = biological target: T1, Gamma-aminobutyric acid receptor subunit rho-1; assay: Agonist activity at recombinant human GABA-A rho-1 receptor transiently expressed in human tsA201 cells at >= 100 uM incubated for 30 mins and measured up to 90 secs by FMP dye based FLIPR membrane potential blue assay; format: cell-based
[8] = organism: Homo sapiens; assay: Agonist activity at recombinant human GABA-A alpha3beta2gamma2S receptor transiently expressed in human tsA201 cells at >= 300 uM incubated for 30 mins and measured up to 90 secs by FMP dye based FLIPR membrane potential blue assay; format: cell-based
[9] = organism: Homo sapiens
[10] = biological target: T3, GABA-A receptor; alpha-1/beta-2/gamma-2 (Homo sapiens) (UniProt P14867+P47870+P18507); assay: Agonist activity at recombinant human GABA-A alpha1beta2gamma2S receptor transiently expressed in human tsA201 cells at >= 300 uM incubated for 30 mins and measured up to 90 secs by FMP dye based FLIPR membrane potential blue assay; format: cell-based
[11] = organism: Homo sapiens; assay: Agonist activity at recombinant human GABA-A alpha3beta2gamma2S receptor transiently expressed in human tsA201 cells at >= 100 uM incubated for 30 mins and measured up to 90 secs by FMP dye based FLIPR membrane potential blue assay; format: cell-based
[12] = biological target: T3, GABA-A receptor; alpha-1/beta-2/gamma-2 (Homo sapiens); assay: Agonist activity at recombinant human GABA-A alpha1beta2gamma2S receptor transiently expressed in human tsA201 cells at >= 1000 uM incubated for 30 mins and measured up to 90 secs by FMP dye based FLIPR membrane potential blue assay; format: cell-based
[13] = biological target: T2, Gamma-aminobutyric acid receptor subunit alpha-4/beta-2/gamma-2; assay: Agonist activity at recombinant human GABA-A alpha4beta2gamma2S receptor transiently expressed in human tsA201 cells at >= 1000 uM incubated for 30 mins and measured up to 90 secs by FMP dye based FLIPR membrane potential blue assay; format: cell-based

T1 sequence (P24046 whole entry): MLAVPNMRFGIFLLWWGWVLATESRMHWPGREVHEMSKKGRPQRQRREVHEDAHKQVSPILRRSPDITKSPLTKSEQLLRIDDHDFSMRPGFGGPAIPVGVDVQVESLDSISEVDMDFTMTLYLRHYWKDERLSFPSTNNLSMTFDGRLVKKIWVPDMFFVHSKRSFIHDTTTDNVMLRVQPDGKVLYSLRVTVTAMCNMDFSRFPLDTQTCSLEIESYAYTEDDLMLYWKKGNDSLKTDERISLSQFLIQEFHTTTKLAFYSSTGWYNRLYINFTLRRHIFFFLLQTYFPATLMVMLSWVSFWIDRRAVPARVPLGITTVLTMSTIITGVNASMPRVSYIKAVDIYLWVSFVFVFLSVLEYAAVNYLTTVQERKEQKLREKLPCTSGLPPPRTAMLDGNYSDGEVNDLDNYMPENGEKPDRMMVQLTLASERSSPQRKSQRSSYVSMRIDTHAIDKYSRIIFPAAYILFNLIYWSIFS

| SMILES | IC50 [1] [µM] | Activity [3] | Activity [7] | pEC50 [9] | Activity [10] | further results |
| --- | --- | --- | --- | --- | --- | --- |
| C[C@@H](C(=O)O)[C@H]1CSC(N)=N1 (relative stereo) | 300 | inactive |  |  |  | Activity [2]: Active |
| NC1=NC(CC(=O)O)CN1 (stereo not drawn) |  |  |  |  |  | Ratio IC50 [4]: 14 to 44; Ratio IC50 [5]: 14 to 44; Ratio IC50 [6]: 14 to 44 |
| C[C@H]1SC(N)=N[C@@H]1CC(=O)O (relative stereo) |  |  | Active | inactive | Active | Activity [8]: Active |
| C[C@@H](C(=O)O)[C@@H]1CSC(N)=N1 (relative stereo) |  |  |  |  |  | Activity [13]: Active |

Now from value to molecule, other results behind:

| IC50 [1] [µM] | Activity [3] | Activity [7] | pEC50 [9] | Activity [10] | SMILES | further results |
| --- | --- | --- | --- | --- | --- | --- |
|  |  | Active | inactive | Active | O=C(O)C[C@@H]1CCNC1 | Activity [11]: Active |
| 100 | inactive |  |  |  | C[C@@H]1SC(N)=N[C@@H]1CC(=O)O (relative stereo) | Activity [12]: Active |
